# Laboratory results: patent US9120770B2, “Substituted pyridine and pyrazine compounds as PDE4 inhibitors” (DART NEUROSCIENCE (CAYMAN) LTD., priority 2013, dated 2015)
# Target: PDE4D3 (Homo sapiens, UniProt Q08499)
# Sequence (Q08499 1-673 isoform Q08499-2): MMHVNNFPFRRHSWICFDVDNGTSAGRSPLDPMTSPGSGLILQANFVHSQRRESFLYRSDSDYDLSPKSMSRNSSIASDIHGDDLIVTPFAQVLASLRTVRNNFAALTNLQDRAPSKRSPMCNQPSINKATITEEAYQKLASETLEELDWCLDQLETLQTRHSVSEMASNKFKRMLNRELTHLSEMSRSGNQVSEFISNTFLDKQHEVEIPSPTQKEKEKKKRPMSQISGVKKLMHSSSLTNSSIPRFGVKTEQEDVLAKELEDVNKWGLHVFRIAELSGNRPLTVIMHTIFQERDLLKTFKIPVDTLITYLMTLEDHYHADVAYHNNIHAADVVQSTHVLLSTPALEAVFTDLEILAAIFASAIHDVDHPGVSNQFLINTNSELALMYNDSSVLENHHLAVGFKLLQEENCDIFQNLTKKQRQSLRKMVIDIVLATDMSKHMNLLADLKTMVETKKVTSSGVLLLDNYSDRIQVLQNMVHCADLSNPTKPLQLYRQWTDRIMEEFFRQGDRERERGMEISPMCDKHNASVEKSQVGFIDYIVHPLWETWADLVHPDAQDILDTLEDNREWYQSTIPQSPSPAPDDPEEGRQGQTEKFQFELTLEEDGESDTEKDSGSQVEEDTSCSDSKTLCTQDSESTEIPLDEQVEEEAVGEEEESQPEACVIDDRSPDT
row,SMILES,EC50 [nM]
1,"COc1ncc(Cc2cnc(NCCN(C)C)nc2)cc1-c1cccc(Cl)c1 [Example 3, {2-[(5-{[5-(3-Chlorophenyl)-6-methoxypyridin-3-yl]methyl}pyrimidin-2-yl)amino]ethyl}dimethylamine]",1000 to 10000
2,"COc1cccc(-c2cc(Cn3cncn3)cnc2OC)n1 [Example 4, 2-Methoxy-3-(6-methoxypyridin-2-yl)-5-(1H-1,2,4-triazol-1-ylmethyl)pyridine]",> 10000
3,"COc1ncc(Cn2cncn2)cc1-c1cncc(C)c1 [Example 6, 2-Methoxy-3-(5-methylpyridin-3-yl)-5-(1H-1,2,4-triazol-1-ylmethyl)pyridine]",> 10000
4,"COc1ncc(Cn2cncn2)cc1-c1cccc(CO)c1 [Example 8, {3-[2-Methoxy-5-(1H-1,2,4-triazol-1-ylmethyl)pyridin-3-yl]phenyl}methanol]",1000 to 10000
5,"COc1ncc(Cn2cncn2)cc1-c1cccc(S(C)(=O)=O)c1 [Example 9, 3-(3-Methanesulfonylphenyl)-2-methoxy-5-(1H-1,2,4-triazol-1-ylmethyl)pyridine]",> 10000
6,"COc1ncc(Cn2cncn2)cc1-c1cc(C)ccn1 [Example 10, 2-Methoxy-3-(4-methylpyridin-2-yl)-5-(1H-1,2,4-triazol-1-ylmethyl)pyridine]",> 10000
7,"COc1ncc(Cn2cncn2)cc1-c1cccc(C)n1 [Example 11, 2-Methoxy-3-(6-methylpyridin-2-yl)-5-(1H-1,2,4-triazol-1-ylmethyl)pyridine]",> 10000
8,"COc1ncc(C(O)c2ccc(F)cc2)cc1-c1cccc(Cl)c1 (stereo not shown) [Example 14, [5-(3-Chlorophenyl)-6-methoxypyridin-3-yl](4-fluorophenyl)methanol]",100 to 1000
9,"COc1ncc(C(C)(O)c2ccc(F)cc2)cc1-c1cccc(Cl)c1 (stereo not shown) [Example 15, 1-[5-(3-Chlorophenyl)-6-methoxypyridin-3-yl]-1-(4-fluorophenyl)ethan-1-ol]",1000 to 10000
10,"COc1ncc(C(O)c2ccc(F)cn2)cc1-c1cccc(Cl)c1 (stereo not shown) [Example 16, [5-(3-Chlorophenyl)-6-methoxypyridin-3-yl](5-fluoropyridin-2-yl)methanol]",1000 to 10000
11,"CNC(c1ccc(F)cc1)c1cnc(OC)c(-c2cccc(Cl)c2)c1 (stereo not shown) [Example 17, {[5-(3-Chlorophenyl)-6-methoxypyridin-3-yl](4-fluorophenyl)methyl}(methyl)amine]",1000 to 10000
12,"COc1ncc(C(N)c2ccc(F)cc2)cc1-c1cccc(Cl)c1 (stereo not shown) [Example 18, [5-(3-Chlorophenyl)-6-methoxypyridin-3-yl](4-fluorophenyl)methanamine]",1000 to 10000
13,"COc1ncc(C(c2ccc(F)cc2)N(C)C)cc1-c1cccc(Cl)c1 (stereo not shown) [Example 19, {[5-(3-Chlorophenyl)-6-methoxypyridin-3-yl](4-fluorophenyl)methyl}dimethylamine]",1000 to 10000
14,"COc1ncc(C(F)c2ccc(F)cc2)cc1-c1cccc(Cl)c1 (stereo not shown) [Example 20, 3-(3-Chlorophenyl)-5-[fluoro(4-fluorophenyl)methyl]-2-methoxypyridine]",100 to 1000
15,"COc1ncc(Cc2ccc(C(=O)O)cc2)cc1-c1cccc(Cl)c1 [Example 21, 4-{[5-(3-Chlorophenyl)-6-methoxypyridin-3-yl]methyl}benzoic acid]",100 to 1000
16,"COc1ncc(Cc2cnc(C#N)nc2)nc1-c1cccc(Cl)c1 [Example 22, 5-{[6-(3-Chlorophenyl)-5-methoxypyrazin-2-yl]methyl}pyrimidine-2-carbonitrile]",> 10000
17,"COc1ncc(Cc2cnc(C(=O)O)nc2)cc1-c1cccc(Cl)c1 [Example 23, 5-{[5-(3-Chlorophenyl)-6-methoxypyridin-3-yl]methyl}pyrimidine-2-carboxylic acid]",1000 to 10000
18,"COc1ncc(Cc2cnc(C(N)=O)nc2)cc1-c1cccc(Cl)c1 [Example 24, 5-{[5-(3-Chlorophenyl)-6-methoxypyridin-3-yl]methyl}pyrimidine-2-carboxamide]",100 to 1000
19,"COc1ncc(Cc2ccc(NC(N)=O)cc2)cc1-c1cccc(Cl)c1 [Example 26, (4-{[5-(3-Chlorophenyl)-6-methoxypyridin-3-yl]methyl}phenyl)urea]",100 to 1000
20,"COc1ncc(Cc2ccc(NC(=O)NC3COC3)cc2)cc1-c1cccc(Cl)c1 [Example 31, 1-(4-{[5-(3-Chlorophenyl)-6-methoxypyridin-3-yl]methyl}phenyl)-3-(oxetan-3-yl)urea]",1000 to 10000
21,"COc1ncc(Cc2ccc(N(C)C)nc2)cc1-c1cccc(Cl)c1 [Example 34, 5-{[5-(3-Chlorophenyl)-6-methoxypyridin-3-yl]methyl}-N,N-dimethylpyridin-2-amine]",100 to 1000
22,"N#Cc1ncc(Cc2cnc(OC(F)F)c(-c3cccc(Cl)c3)c2)cn1 [Example 35, 5-{[5-(3-Chlorophenyl)-6-(difluoromethoxy)pyridin-3-yl]methyl}pyrimidine-2-carbonitrile]",1000 to 10000
23,"COc1ncc(Cc2ccccc2CO)cc1-c1cccc(Cl)c1 [Example 37, (2-{[5-(3-Chlorophenyl)-6-methoxypyridin-3-yl]methyl}phenyl)methanol]",100 to 1000
24,"COc1ncc(Cc2cnc(C#N)nc2)cc1-c1cccc(F)c1 [Example 39, 5-{[5-(3-Fluorophenyl)-6-methoxypyridin-3-yl]methyl}pyrimidine-2-carbonitrile]",1000 to 10000
25,"CC(C)Oc1ncc(Cc2cnc(N)nc2)cc1-c1cccc(Cl)c1 [Example 41, 5-{[5-(3-Chlorophenyl)-6-(propan-2-yloxy)pyridin-3-yl]methyl}pyrimidin-2-amine]",100 to 1000
26,"CC(C)Oc1cccc(-c2cc(Cc3cnc(N)nc3)cnc2OC(F)F)c1 [Example 42, 5-{[6-(Difluoromethoxy)-5-[3-(propan-2-yloxy)phenyl]pyridin-3-yl]methyl}pyrimidin-2-amine]",1000 to 10000
27,"Nc1ncc(Cc2cnc(OC(F)F)c(-c3cccc(OC4COC4)c3)c2)cn1 [Example 43, 5-{[6-(Difluoromethoxy)-5-[3-(oxetan-3-yloxy)phenyl]pyridin-3-yl]methyl}pyrimidin-2-amine]",100 to 1000
28,"COc1ncc(Cc2cnc(NC(C)=O)nc2)cc1-c1cccc(Cl)c1 [Example 44, N-(5-[{5-(3-Chlorophenyl)-6-methoxypyridin-3-yl]methyl}pyrimidin-2-yl)acetamide]",100 to 1000
29,"CS(=O)(=O)c1ccc(Cc2cnc(OC(F)F)c(-c3cccc(Cl)c3)c2)cc1 [Example 45, 3-(3-Chlorophenyl)-2-(difluoromethoxy)-5-[(4-methanesulfonylphenyl)methyl]pyridine]",100 to 1000

# Other lines, results leading:
row,EC50 [nM],SMILES
1,< 100,"CCOc1ncc(Cc2cnc(C#N)nc2)nc1-c1cccc(OC(F)F)c1 [Example 1, 5-({6-[3-(Difluoromethoxy)phenyl]-5-ethoxypyrazin-2-yl}methyl)pyrimidine-2-carbonitrile]"
2,100 to 1000,"COc1ncc(Cc2cnc(Cl)nc2)cc1-c1cccc(Cl)c1 [Example 2, 2-Chloro-5-{[5-(3-chlorophenyl)-6-methoxypyridin-3-yl]methyl}pyrimidine]"
3,100 to 1000,"COc1ncc(Cn2cncn2)cc1-c1cccc(C)c1 [Example 5, 2-Methoxy-3-(3-methylphenyl)-5-(1H-1,2,4-triazol-1-ylmethyl)pyridine]"
4,100 to 1000,"COc1ncc(Cn2cncn2)cc1-c1ccnc(C)c1 [Example 7, 2-Methoxy-3-(2-methylpyridin-4-yl)-5-(1H-1,2,4-triazol-1-ylmethyl)pyridine]"
5,100 to 1000,"Cc1cccc(-c2cc(Cn3cncn3)cnc2OC(F)F)c1 [Example 12, 2-(Difluoromethoxy)-3-(3-methylphenyl)-5-(1H-1,2,4-triazol-1-ylmethyl)pyridine]"
6,< 100,"CCOc1ncc(Cc2cnc(C(N)=O)nc2)nc1-c1cccc(OC(F)F)c1 [Example 13, 5-({6-[3-(Difluoromethoxy)phenyl]-5-ethoxypyrazin-2-yl}methyl)pyrimidine-2-carboxamide]"
7,< 100,"COc1ncc(Cc2cnc(N)nc2)cc1-c1cccc(Cl)c1 [Example 25, 5-{[5-(3-Chlorophenyl)-6-methoxypyridin-3-yl]methyl}pyrimidin-2-amine]"
8,< 100,"COc1ncc(Cc2ccc(C(N)=O)cc2)cc1-c1cccc(Cl)c1 [Example 27, 4-{[5-(3-Chlorophenyl)-6-methoxypyridin-3-yl]methyl}benzamide]"
9,< 100,"FC(F)Oc1ncc(Cc2cn[nH]c2)cc1-c1cccc(Cl)c1 [Example 28, 5-((1H-Pyrazol-4-yl)methyl)-3-(3-chlorophenyl)-2-(difluoromethoxy)pyridine]"
10,< 100,"COc1cccc(-c2cc(Cc3cnc(N)nc3)cnc2OC(F)F)c1 [Example 29, 5-{[6-(Difluoromethoxy)-5-(3-methoxyphenyl)pyridin-3-yl]methyl}pyrimidin-2-amine]"
11,< 100,"COc1ncc(Cc2ccc(N)nc2)cc1-c1cccc(Cl)c1 [Example 30, 5-{[5-(3-Chlorophenyl)-6-methoxypyridin-3-yl]methyl}pyridin-2-amine]"
12,< 100,"COc1ccc(Cc2cnc(OC)c(-c3cccc(Cl)c3)c2)cn1 [Example 32, 3-(3-Chlorophenyl)-2-methoxy-5-[(6-methoxypyridin-3-yl)methyl]pyridine]"
13,< 100,"Nc1ccc(Cc2cnc(OC(F)F)c(-c3cccc(Cl)c3)c2)cn1 [Example 33, 5-{[5-(3-Chlorophenyl)-6-(difluoromethoxy)pyridin-3-yl]methyl}pyridin-2-amine]"
14,< 100,"Nc1ncc(Cc2cnc(OC(F)F)c(-c3cccc(Cl)c3)c2)s1 [Example 36, 5-{[5-(3-Chlorophenyl)-6-(difluoromethoxy)pyridin-3-yl]methyl}-1,3-thiazol-2-amine]"
15,< 100,"COc1ncc(Cc2cnc(N)nc2)cc1-c1cccc(F)c1 [Example 38, 5-{[5-(3-Fluorophenyl)-6-methoxypyridin-3-yl]methyl}pyrimidin-2-amine]"
16,< 100,"CCOc1ncc(Cc2cnc(N)nc2)cc1-c1cccc(Cl)c1 [Example 40, 5-{[5-(3-Chlorophenyl)-6-ethoxypyridin-3-yl]methyl}pyrimidin-2-amine]"
17,< 100,"COc1cc(-c2cc(Cc3cnc(N)nc3)cnc2OC(F)F)ccn1 [Example 46, 5-{[6-(Difluoromethoxy)-5-(2-methoxypyridin-4-yl)pyridin-3-yl]methyl}pyrimidin-2-amine]"
